# Assay results published in patent US9932339B2, “Helquats with heteroaromatic substituents, preparation thereof, and use thereof as G-quadruplex stabilizers” (USTAV ORGANICKE CHEMIE A BIOCHEMIE AV CR, V.V.I., priority 2014, dated 2018).
# Legend:
# [1] = test system: G-quadruplex oligonucleotide Fmyc27T (NHE III1 promoter region of c-myc oncogene); test: FRET melting of G-quadruplex oligonucleotide Fmyc27T with ligands; assay type: binding; settings: for ΔTm (° C.) Fmyc27T/ds26 (° C.): helquat 1 μmol·l^−1, oligonucleotide 0.2 μmol·l^−1, 50-fold excess of double-stranded competitor ds26; for ΔTm (° C.) Fmyc27T: helquat 1 μmol·l^−1, oligonucleotide 0.2 μmol·l^−1, without competitor
# From the text: (§1) To determine the degree of in vitro interactions of helquats with G-quadruplex(es), the oligonucleotides containing the guanine-rich sequences of human telomere (F21T) and NHE III1 promoter region of c-myc oncogene (Fmyc27T) were used. Both oligonucleotides capable of forming an intramolecular G-quadruplex were end-labeled with suitable fluorophores so as to form donor-acceptor FRET pair (5′-FAM and 3′-TAMRA). If the oligonucleotide is folded into the structure of the G-quadruplex, donor is in close proximity of acceptor and radiationless energy transfer to the acceptor occurs. With increasing temperature of the reaction mixture G-quadruplex structure gradually denatures and thus the donor and acceptor (FAM-TAMRA) drift apart. This leads to an increase in fluorescence of donor (FAM) and a decrease in fluorescence of acceptor (TAMRA).
# (§2) The result of measurement is the curve of dependence of the intensity of fluorescence of the donor on the temperature. If the G-quadruplex is stabilized by ligand, melting temperature will increase. Melting temperature of G-quadruplex corresponds to the temperature when 50% of the original amount of the folded G-quadruplex is denatured. The measurement outcome is the difference in the melting temperatures (ΔTm) of the G-quadruplex alone and the G-quadruplex stabilized by ligand. In case of Fmyc27T experiments were performed in cacodylate buffer (10 mmol·l^−1, pH=7.2) with KCl (5 mmol·l^−1) and LiCl (95 mmol·l^−1) oligonucleotide and in case of F21T oligonucleotide in cacodylate buffer (10 mmol·l^−1, pH=7.2) with KCl (25 mmol·l^−1) and LiCl (75 mmol·l^−1).
# (§3) Both oligonucleotides were denatured for 5 minutes at 95° C. and subsequently allowed to cool to room temperature (3 hours) in the switched-off thermoblock. The final oligonucleotide concentration in the reaction mixture was 0.2 μmol·l^−1. Test helquats were present at concentrations of 1 μmol·l^−1. The total reaction volume was 30 μl. The melting temperature of the oligonucleotides alone (without the presence of helquats) under these conditions was 58.1±0.2° C. for F21T and 64.7±0.4° C. for Fmyc27T. For determining the selectivity of binding of helquats to G-quadruplex in comparison with the double-stranded DNA, 50-fold excess of double-stranded DNA ([…] unlabeled competitor ds26 forming a hairpin) is added to the reaction mixture. After the addition to the reaction mixture ds26 competes with labeled oligonucleotide (Fmyc27T or F21T) for ligand binding. […] Melting temperature of oligonucleotides alone in the presence of the competitor is 59.4±0.5° C. for F21T and 66.3° C.±0.6° C. for Fmyc27T.
# (§4) Fluorescence of FAM donor was measured using real-time PCR apparatus Opticon 2 (excitation 470-505 nm and emission 523-543 nm) in temperature increments of 0.5° C. in the range 25 to 95° C. Evaluation of the sigmoid curves of fluorescence intensity dependent on the temperature were performed in GraphPad Prism 5 (GraphPad Software, Inc., USA). Using nonlinear five parametric regression the inflection point on the curve was calculated that corresponds to the melting temperature (Tm) of the G-quadruplex under the given conditions. The values were obtained from at least three independent measurements.
# [2] = test system: G-quadruplex oligonucleotide F21T (human telomere); test: FRET melting of G-quadruplex oligonucleotide F21T with ligands; assay type: binding; settings: for ΔTm (° C.) F21T/ds26: helquat 1 μmol·l^−1, oligonucleotide 0.2 μmol·l^−1, 50-fold excess of double-stranded competitor ds26; for ΔTm (° C.) F21T: helquat 1 μmol·l^−1, oligonucleotide 0.2 μmol·l^−1, without competitor
# From the text: as §1, §2, §3, §4
# [3] = test system: c-Myc27 oligonucleotide G-quadruplex; test: ECD melting curve of c-Myc27 oligonucleotide G-quadruplex with ligands; assay type: binding; settings: ECD at 263 nm; molar ratio oligonucleotide:ligand 1:1 (5 μmol l^−1 each); Li+-cacodylate buffer
# Protocol: ECD spectra were measured on J-815 spectrometer (Jasco, Japan). Measurement settings (Tab. 3), spectra saving and background subtraction was performed in a Spectra Manager software (Jasco, Japan).
# For measurement of the temperature dependencies the cuvettes in the cuvette compartment were placed in the Peltier module, the temperature was controlled by the Spectra Manager software. Melting curves were measured at a wavelength which corresponds to the maximum difference in signal intensity of ECD spectra of oligonucleotide at 25 and 95° C., as shown in FIG. 1. Before and after measuring the melting curves, ECD spectra in extreme temperatures were measured, in order to verify the stability of the studied system.
# Processing of the spectra was performed using Spectra Manager (Jasco, Japan). The resulting spectra were obtained from the measured sample spectrum after subtraction of background spectrum, which was spectrum of the solvent. Measuring of sample spectrum and background was conducted under identical conditions. ECD spectra are reported as ellipticity, labeled in the CD figures [mdeg], whose numerical value is associated with dimensionless circular dichroism ΔA (CDv=32980 ΔAv). This CD notations preserves conventions of the international journals in which articles from the field are published.
# Stock solution of […] was prepared from c-Myc27 oligonucleotide by dissolution in H2O. The cuvette of 1 mm thickness was filled with 7 μl of oligonucleotide solution and 133 μl of Li^+-cacodylate buffer. Oligonucleotide solution in the cuvette was overlayed with mineral oil to measure temperature dependencies without concentration changes due to evaporation of the solvent at higher temperatures.
# From stock solutions of the racemic ligands in DMSO at a concentration of […] solutions were prepared at a concentration of 140 μmol l^−1 by dissolving in H2O. Ligands were added to the solution of oligonucleotide under buffer/mineral oil interface using Hamilton microsyringe (5 μl of solution at a concentration of […]). The resulting molar ratio of oligonucleotide:ligand was 1:1.
# The cuvette filled with c-Myc27 oligonucleotide solution in Li^+-cacodylate buffer (cc-Myc27=5 μmol l^−1) was first heated for 5 minutes at 95° C., at this temperature ECD spectrum was measured. Then the sample was cooled to 25° C., allowed to stabilize for 10 min and then ECD spectrum was measured again. Then, the melting curve of ECD oligonucleotide at 263 nm was measured in the temperature range 25-95° C. and for verification of the stability of the sample spectra the spectra were measured again at 95 and 25° C. Under the oil layer ligand solution (cligand=5 μmol l^−1) was added to a solution of oligonucleotide, the sample was thoroughly mixed and ECD spectrum measured at 25° C., the melting curve was obtained and again control spectra were measured at 95 and 25° C.
# Decomposition of the G-quadruplex structure in the presence of ligands under influence of temperature was monitored at the wavelength corresponding to the maximum difference in signal intensities of ECD oligonucleotide/ligand at 25 and 95° C., i.e. at 263 nm. Thermal stability of G-quadruplex was monitored in the range of 25 to 95° C. and in a molar ratio of oligonucleotide:ligand=1:1. Example of influence of the studied ligand on the stability of G-quadruplex formed from c-Myc27 oligonucleotide is shown in FIG. 2.
# The degree of G-quadruplex stabilization was expressed as change of melting temperature caused by the presence of G-quadruplex ligands (ΔTm): ΔTm=Tm,oligonucleotide+ligand−Tm,oligonucleotide (1), • where Tm,oligonucleotide+ligand is melting temperature of molecular system comprising the oligonucleotide and the ligand and Tm,oligonucleotide, the melting temperature of the oligonucleotide itself. Tab. 4 summarizes the changes in melting temperatures of c-Myc27 oligonucleotide G-quadruplex in the presence of studied ligands.
# G-quadruplex = settings: background statement; cited from earlier work
# [4] = Phase II clinical trials; cited from earlier work
structure (smiles),measurement,setting,value
"Brc1ccc2[nH]cc(/C=C/c3cc[n+]4c(c3)-c3c(ccc5c3-c3cccc[n+]3CC5)CC4)c2c1.O=S(=O)([O-])C(F)(F)F.O=S(=O)([O-])C(F)(F)F [LSA-C9-30, (E)-2-(2-(5-bromo-1H-indol-3-yl)vinyl)-6,7,10,11-tetrahydrodipyrido[2,1-a:1′,2′-k][2,9]phenanthroline-5,12-diium trifluoromethanesulfonate]",ΔTm (° C.) Fmyc27T/ds26 (° C.),[1],8.2 °C
same,ΔTm (° C.) Fmyc27T,[1],10.5 °C
same,ΔTm (° C.) F21T/ds26,[2],5.5 °C
same,ΔTm (° C.) F21T,[2],8.6 °C
same,ΔTm (° C.),[3],6.4 °C
"Cc1[nH]c2ccccc2c1/C=C/c1cc[n+]2c(c1)-c1c(ccc3c1-c1cc(/C=C/c4c(C)[nH]c5ccccc45)cc[n+]1CC3)CC2.O=S(=O)([O-])C(F)(F)F.O=S(=O)([O-])C(F)(F)F [PDA-C10-11, 2,15-bis((E)-2-(2-methyl-1H-indol-3-yl)vinyl)-6,7,10,11-tetrahydrodipyrido[2,1-a:1′,2′-k][2,9]phenanthroline-5,12-diium trifluoromethanesulfonate]",ΔTm (° C.) Fmyc27T/ds26 (° C.),[1],13.9 °C
same,ΔTm (° C.) Fmyc27T,[1],14.9 °C
same,ΔTm (° C.) F21T/ds26,[2],12.3 °C
same,ΔTm (° C.) F21T,[2],12.9 °C
same,ΔTm (° C.),[3],8.2 °C
"C(=C\c1c(-c2ccccc2)[nH]c2ccccc12)/c1cc[n+]2c(c1)-c1c(ccc3c1-c1cc(/C=C/c4c(-c5ccccc5)[nH]c5ccccc45)cc[n+]1CC3)CC2.O=S(=O)([O-])C(F)(F)F.O=S(=O)([O-])C(F)(F)F [PDA-C15-8, 2,15-bis((E)-2-(2-phenyl-1H-indol-3-yl)vinyl)-6,7,10,11-tetrahydrodipyrido[2,1-a:1′,2′-k][2,9]phenanthroline-5,12-diium trifluoromethanesulfonate]",ΔTm (° C.) Fmyc27T/ds26 (° C.),[1],19.9 °C
same,ΔTm (° C.) Fmyc27T,[1],18.8 °C
same,ΔTm (° C.) F21T/ds26,[2],17.3 °C
same,ΔTm (° C.) F21T,[2],17.2 °C
same,ΔTm (° C.),[3],10.1 °C
"Cc1c(C)c2c(c3c1CC[n+]1ccc(/C=C/c4c[nH]c5ncccc45)cc1-3)-c1cc(/C=C/c3c[nH]c4ncccc34)cc[n+]1CC2 [PDB-C8-14, 2,15-bis((E)-2-(1H-pyrrolo[2,3-b]pyridin-3-yl)vinyl)-8,9-dimethyl-6,7,10,11-tetrahydrodipyrido[2,1-a:1′,2′-k][2,9]phenanthroline-5,12-diium trifluoromethanesulfonate]",ΔTm (° C.) Fmyc27T/ds26 (° C.),[1],9.3 °C
same,ΔTm (° C.) Fmyc27T,[1],11.5 °C
same,ΔTm (° C.) F21T/ds26,[2],5.0 °C
same,ΔTm (° C.) F21T,[2],8.4 °C
same,ΔTm (° C.),[3],5.0 °C
"Cc1[nH]c2ccccc2c1/C=C/c1cc[n+]2c(c1)-c1c(c(C)c(C)c3c1-c1cc(/C=C/c4c(C)[nH]c5ccccc45)cc[n+]1CC3)CC2 [PDB-C10-11, 8,9-dimethyl-2,15-bis((E)-2-(2-methyl-1H-indol-3-yl)vinyl)-6,7,10,11-tetrahydrodipyrido[2,1-a:1′,2′-k][2,9]phenanthroline-5,12-diium trifluoromethanesulfonate]",ΔTm (° C.) Fmyc27T/ds26 (° C.),[1],13.1 °C
same,ΔTm (° C.) Fmyc27T,[1],14.2 °C
same,ΔTm (° C.) F21T/ds26,[2],10.7 °C
same,ΔTm (° C.) F21T,[2],13.0 °C
same,ΔTm (° C.),[3],9.8 °C
C[n+]1ccc(-c2c3nc(c(-c4cc[n+](C)cc4)c4ccc([nH]4)c(-c4cc[n+](C)cc4)c4ccc([nH]4)c(-c4cc[n+](C)cc4)c4nc2C=C4)C=C3)cc1 [TMPyP4],selectivity towards G-quadruplex in presence of DNA duplex,G-quadruplex,low selectivity
CN1CCC[C@H]1CCNC(=O)c1cn2c3c(c(N4CCC(c5cnccn5)C4)c(F)cc3c1=O)Oc1cc3ccccc3cc1-2 (stereo partly drawn) [quarfloxin],bioavailability,[4],poor bioavailability
